From PMC7577125 (Antimicrobial Agents and Chemotherapy, 2020)
Read-outs that look alike come from different tables or passages of the source.

How the values were obtained:
HBV [1] = assay: Extracellular HBV DNA and pgRNA in HepAD38 cells (qPCR, RT-qPCR); assay type: cell-based, Hepatitis B virus; settings: for Extracellular DNA content (% of DMSO control) / Extracellular pgRNA content (% of DMSO control): HepAD38, concn ETV 0.01, ABI-H0731 2.0, GLS4 0.5, NVR 3-778 2.5, AT-130 0.8, VRD-32 0.8 μM
Text: For HBV RNA Northern blot analysis, total cellular RNA or encapsidated pgRNA samples were resolved in a 1.5% agarose gel containing 2.2 M formaldehyde and transferred onto a Hybond-XL membrane (GE Healthcare). For DNA Southern blot analysis, HBV core DNA or cccDNA samples were resolved by electrophoresis in a 1.2% agarose gel and blotted onto a Hybond-XL membrane. Membranes were probed with either an [α-^32P]UTP (3,000 Ci/mmol; PerkinElmer)-labeled plus-strand-specific (for Northern blot hybridization) or minus-strand-specific (for Southern blot hybridization) HBV riboprobe and exposed to a phosphorimager screen. Extracellular HBV DNA and RNA were copurified from the culture medium of induced HepAD38 cells by using a MinElute virus vacuum kit (Qiagen). Viral DNA was quantified using the above-mentioned qPCR method directly, and HBV RNA was detected by RT-qPCR with the same core region primer/probe set after the removal of DNA contamination by DNase I (Thermo Fisher) treatment.

HBV Cp Y118F = assay: microbe, parasite or virus in culture; assay type: cell-based, Hepatitis B virus; settings: Hepatitis B virus, Huh-7, read-out: Mean EC50
[2] = tested on: NrtI^R HBV (rtL180M/M204V); assay: microbe, parasite or virus in culture; assay type: cell-based, Hepatitis B virus; settings: Hepatitis B virus
HBV capsid DNA [3] = assay: Incoming capsid assay in PHH cells; assay type: cell-based; settings: Hepatitis B virus, 0.10 μM, 3 h, read-out: Capsid DNA % of Control
HBV Cp Y38C = assay: microbe, parasite or virus in culture; assay type: cell-based, Hepatitis B virus; settings: Hepatitis B virus, Huh-7, read-out: Mean EC50
HBV Cp T109I = assay: microbe, parasite or virus in culture; assay type: cell-based, Hepatitis B virus; settings: Hepatitis B virus, Huh-7, read-out: Mean EC50
HBV [4] = assay: HBV infection of primary human hepatocytes (PHHs); assay type: cell-based; settings: Hepatitis B virus, Hepatocyte, PHH
HBV Cp T109M = assay: microbe, parasite or virus in culture; assay type: cell-based, Hepatitis B virus; settings: Hepatitis B virus, Huh-7, read-out: Mean EC50
HBV [5] = assay: Dose response of ETV and ABI-H0731 alone and in combination in induced HepAD38 cells; assay type: cell-based, Hepatitis B virus; settings: 100× VR EC50 of ETV
Protocol: Viral replication was evaluated by quantifying the levels of total HBV DNA in the cells by qPCR. […] In both cases, the data are plotted as a function of each drug’s concentration relative to its VR EC50.

HBV Cp T33N = assay: microbe, parasite or virus in culture; assay type: cell-based, Hepatitis B virus; settings: Hepatitis B virus, Huh-7, read-out: Mean EC50
HBV genotype D = assay: microbe, parasite or virus in culture; assay type: cell-based; settings: Hepatitis B virus, read-out: Mean antiviral EC50
[6] = tested on: HBV genotypes A, B, C, and D; assay: microbe, parasite or virus in culture; assay type: cell-based; settings: Hepatitis B virus, read-out: VR EC50s
HBV genotype B = assay: microbe, parasite or virus in culture; assay type: cell-based; settings: Hepatitis B virus, read-out: Mean antiviral EC50
HBV genotype A = assay: microbe, parasite or virus in culture; assay type: cell-based; settings: Hepatitis B virus, read-out: Mean antiviral EC50
HBV [7] = assay: De novo infection models (HepG2-NTCP and PHH), summary; assay type: cell-based, Hepatitis B virus; settings: HepG2-NTCP and PHH cells, tested at up to 100 nM
HBV Cp Wild type = assay: microbe, parasite or virus in culture; assay type: cell-based, Hepatitis B virus; settings: Hepatitis B virus, Huh-7, read-out: Mean EC50
HBV capsid DNA [8] = assay: Incoming capsid assay in HepG2-NTCP cells; assay type: cell-based; settings: Hepatitis B virus, 1.00 μM, 3 h, read-out: Capsid DNA % of Control
HBV cccDNA [9] = assay: cccDNA formation assay in infected HepG2-NTCP cells (Southern blot); assay type: cell-based; settings: Hepatitis B virus, 96 h, 1.00 μM, 4 days, read-out: cccDNA % of Control
HBV Cp D29G = assay: microbe, parasite or virus in culture; assay type: cell-based, Hepatitis B virus; settings: Hepatitis B virus, Huh-7, read-out: Mean EC50
HBV [10] = assay: HBV infection of HepG2-NTCP cells; assay type: cell-based; settings: Hepatitis B virus
[11] = tested on: HBV (genotype D, subtype ayw); assay: HBV replication assay in HepAD38 cells; assay type: cell-based, Hepatitis B virus
HBV Cp I105T = assay: microbe, parasite or virus in culture; assay type: cell-based, Hepatitis B virus; settings: Hepatitis B virus, Huh-7, read-out: Mean EC50
HBV Cp I105L = assay: microbe, parasite or virus in culture; assay type: cell-based, Hepatitis B virus; settings: Hepatitis B virus, Huh-7, read-out: Mean EC50
HBV Cp Y38F = assay: microbe, parasite or virus in culture; assay type: cell-based, Hepatitis B virus; settings: Hepatitis B virus, Huh-7, read-out: Mean EC50
HBV genotype C = assay: microbe, parasite or virus in culture; assay type: cell-based; settings: Hepatitis B virus, read-out: Mean antiviral EC50
HBV Cp P25A = assay: microbe, parasite or virus in culture; assay type: cell-based, Hepatitis B virus; settings: Hepatitis B virus, Huh-7, read-out: Mean EC50
HBV cccDNA [12] = assay: cccDNA formation assay in infected PHH cells (Southern blot); assay type: cell-based; settings: Hepatitis B virus, 96 h, 0.10 μM, 4 days, read-out: cccDNA % of Control
[13] = total intracellular viral DNA, read-out: Mean EC50, viral DNA

With `COc1ccccc1/C(Br)=C(/NC(=O)c1ccc([N+](=O)[O-])cc1)C(=O)N1CCCCC1` [AT-130] the “Extracellular DNA content (% of DMSO control)” value (HBV [1]) was 5.3 % of DMSO control and the “Extracellular pgRNA content (% of DMSO control)” value (HBV [1]) was 8.6 % of DMSO control.

`C=C1[C@H](CO)[C@@H](O)C[C@@H]1n1cnc2c(=O)[nH]c(N)nc21` [ETV, entecavir] showed an EC50 (HBV Cp Y118F) of 1.5 ± 0.9 nM, an EC50 ([2]; 96 h, read-out: Mean EC50) of 7.1 ± 1.2 nM and an EC50 ([2]; 168 h, read-out: EC50 by Southern blot of intracellular viral core DNA) of about 10 nM. The activity at 0.1 µM (HBV capsid DNA [3]) was 86%, the EC50 (HBV Cp Y38C) was 1.1 ± 0.5 nM and the EC50 (HBV Cp T109I) was 1.9 ± 0.6 nM. It also gave an EC50 (HBV [4]; read-out: Mean EC50, HBeAg) of over 100 nM, an EC50 (HBV [4]; read-out: Mean EC50, HBsAg) of over 100 nM and an EC50 (HBV [4]; read-out: Mean EC50, pgRNA) of over 100 nM. The EC50 (HBV [4]; [13]) was under 0.1 nM, the EC50 (HBV Cp T109M) was 1.5 ± 0.3 nM and the “reduction of HBV DNA levels” value (HBV [5]) was about 1 log. For the same molecule, the “HBV DNA levels” value (HBV [5]; control 2.2 × 10^6) was 1.3 × 10^5 copies/μl, the EC50 (HBV Cp T33N) was 3.5 ± 1.6 nM and the EC50 (HBV genotype D) was 5 ± 1.9 nM. For the same molecule, the EC50 [6] was 1.2 to 5 nM, the EC50 (HBV genotype B) was 2.3 ± 0.5 nM and the EC50 (HBV genotype A) was 1.9 ± 0.5 nM. The “inhibition of viral antigen production” value (HBV [7]) was “weak and incomplete inhibition”, the EC50 (HBV Cp Wild type) was 1.9 ± 0.9 nM and the activity at 1 µM (HBV capsid DNA [8]) was 90%. The activity at 1 µM (HBV cccDNA [9]) was 85%, the “secreted HBV DNA levels reduced by” value (HBV [1]; HepAD38, ETV 0.01 μM) was 80% and the “Extracellular DNA content (% of DMSO control)” value (HBV [1]) was 19.5 % of DMSO control. For the same molecule, the “Extracellular pgRNA content (% of DMSO control)” value (HBV [1]) was 170 % of DMSO control, the EC50 (HBV Cp D29G) was 0.6 ± 0.1 nM and the EC50 (HBV [10]; read-out: Mean EC50, HBeAg) was over 100 nM. For the same molecule, the EC50 (HBV [10]; read-out: Mean EC50, HBsAg) was over 100 nM, the EC50 (HBV [10]; read-out: Mean EC50, pgRNA) was over 100 nM and the EC50 (HBV [10]; [13]) was 0.8 nM. For the same molecule, the EC50 ([11]; HepAD38, concomitantly determined with HepG2-NrtI^R, read-out: Mean EC50) was 0.58 ± 0.15 nM, the EC50 ([11]; Hepatitis B virus, HePAD38, HepAD38, concomitantly determined with HepG2-NrtI^R, read-out: Mean EC50) was 0.6 nM and the EC50 ([11]; Hepatitis B virus, HePAD38, HepAD38, total intracellular viral DNA, read-out: Mean EC50, viral DNA) was 1.2 ± 0.3 nM. For the same molecule, the EC50 ([11]; Hepatitis B virus, HePAD38, comparison value of Figure S4 legend, read-out: EC50 against a wild-type strain) was 1 nM, the EC50 (HBV Cp I105T) was 0.5 ± 0.3 nM and the EC50 (HBV Cp I105L) was 0.4 ± 0.2 nM. For the same molecule, the EC50 (HBV Cp Y38F) was 4.6 ± 0.6 nM, the EC50 (HBV genotype C) was 1.2 ± 0.1 nM and the EC50 (HBV Cp P25A) was 2.9 ± 0.3 nM. For the same molecule, the activity at 0.1 µM (HBV cccDNA [12]) was 88%.
